Assays:
[1] = biological target: T1, Protein deacetylase HDAC6 (Homo sapiens, UniProt Q9UBN7); test: Inhibition of HDAC6
T1 sequence (Q9UBN7 whole entry): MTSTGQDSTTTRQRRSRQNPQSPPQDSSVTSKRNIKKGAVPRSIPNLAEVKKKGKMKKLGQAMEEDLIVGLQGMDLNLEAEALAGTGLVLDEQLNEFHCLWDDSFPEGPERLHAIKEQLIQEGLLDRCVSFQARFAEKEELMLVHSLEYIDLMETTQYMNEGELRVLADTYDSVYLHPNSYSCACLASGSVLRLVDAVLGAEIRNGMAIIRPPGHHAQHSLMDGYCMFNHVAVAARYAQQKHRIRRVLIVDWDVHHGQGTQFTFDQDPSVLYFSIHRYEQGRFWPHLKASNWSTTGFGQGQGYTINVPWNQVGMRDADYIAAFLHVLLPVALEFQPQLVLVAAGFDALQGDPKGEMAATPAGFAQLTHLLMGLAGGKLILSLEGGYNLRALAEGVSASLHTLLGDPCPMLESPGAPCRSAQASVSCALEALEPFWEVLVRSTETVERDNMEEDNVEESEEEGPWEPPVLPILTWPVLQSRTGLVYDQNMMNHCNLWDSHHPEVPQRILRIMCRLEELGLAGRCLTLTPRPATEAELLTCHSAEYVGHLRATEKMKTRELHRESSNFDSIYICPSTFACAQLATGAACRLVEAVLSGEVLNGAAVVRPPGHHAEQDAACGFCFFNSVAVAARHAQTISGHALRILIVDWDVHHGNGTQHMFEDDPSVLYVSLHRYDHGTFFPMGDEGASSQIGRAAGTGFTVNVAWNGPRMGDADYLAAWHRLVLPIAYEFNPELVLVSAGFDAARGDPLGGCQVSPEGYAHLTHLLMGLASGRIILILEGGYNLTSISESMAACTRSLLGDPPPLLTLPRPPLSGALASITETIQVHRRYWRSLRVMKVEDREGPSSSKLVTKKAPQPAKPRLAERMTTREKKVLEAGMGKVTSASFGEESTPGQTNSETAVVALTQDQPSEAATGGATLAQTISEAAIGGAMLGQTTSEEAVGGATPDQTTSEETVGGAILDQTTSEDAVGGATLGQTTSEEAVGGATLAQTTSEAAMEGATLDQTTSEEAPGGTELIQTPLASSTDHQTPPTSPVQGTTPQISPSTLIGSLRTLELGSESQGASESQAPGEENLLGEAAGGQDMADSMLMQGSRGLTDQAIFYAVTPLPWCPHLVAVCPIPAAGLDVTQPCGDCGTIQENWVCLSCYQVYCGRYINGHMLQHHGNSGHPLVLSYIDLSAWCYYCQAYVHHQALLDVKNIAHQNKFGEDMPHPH

HCT-116 = test: Antiproliferative activity against human HCT116 cells; format: functional, cell-based
[2] = Elimination half life in mouse at 10 mg/kg, iv; format: ADME, organism-based; parameters: dose 10 mg/kg, route intravenous; conditions: in vivo, read-out: beta t1/2 (converted)
Histone deacetylase 4 = Histone deacetylase 4 (Homo sapiens, UniProt P56524); test: Inhibition of HDAC4
Chain of Histone deacetylase 4 (P56524 whole entry): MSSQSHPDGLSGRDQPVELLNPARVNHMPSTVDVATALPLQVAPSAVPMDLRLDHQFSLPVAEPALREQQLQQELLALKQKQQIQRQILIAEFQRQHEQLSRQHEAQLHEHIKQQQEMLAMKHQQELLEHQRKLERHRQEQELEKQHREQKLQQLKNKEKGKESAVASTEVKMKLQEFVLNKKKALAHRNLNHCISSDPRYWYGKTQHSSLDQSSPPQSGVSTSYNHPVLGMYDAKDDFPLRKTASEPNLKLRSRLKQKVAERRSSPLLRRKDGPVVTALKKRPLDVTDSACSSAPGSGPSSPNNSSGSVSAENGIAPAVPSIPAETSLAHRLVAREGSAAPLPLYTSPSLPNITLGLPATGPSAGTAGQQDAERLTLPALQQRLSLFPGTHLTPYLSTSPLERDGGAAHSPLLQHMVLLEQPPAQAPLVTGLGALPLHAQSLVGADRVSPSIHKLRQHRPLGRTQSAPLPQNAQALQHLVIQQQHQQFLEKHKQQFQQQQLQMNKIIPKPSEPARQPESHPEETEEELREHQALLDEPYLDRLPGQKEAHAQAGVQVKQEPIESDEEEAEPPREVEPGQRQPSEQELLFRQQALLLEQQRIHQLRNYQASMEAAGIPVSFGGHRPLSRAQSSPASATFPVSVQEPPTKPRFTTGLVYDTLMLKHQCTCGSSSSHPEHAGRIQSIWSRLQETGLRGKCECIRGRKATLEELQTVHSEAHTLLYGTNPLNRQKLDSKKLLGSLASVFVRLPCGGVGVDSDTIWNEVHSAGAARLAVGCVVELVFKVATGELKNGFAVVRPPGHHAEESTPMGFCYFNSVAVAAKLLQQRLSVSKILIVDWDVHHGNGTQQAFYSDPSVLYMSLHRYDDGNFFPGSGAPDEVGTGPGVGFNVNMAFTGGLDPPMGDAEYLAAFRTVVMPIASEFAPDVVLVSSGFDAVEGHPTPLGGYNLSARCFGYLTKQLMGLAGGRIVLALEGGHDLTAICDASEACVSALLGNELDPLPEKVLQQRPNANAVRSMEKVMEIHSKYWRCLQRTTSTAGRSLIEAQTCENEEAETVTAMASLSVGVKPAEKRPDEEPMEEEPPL

Histone deacetylase 11 = biological target: T2, Histone deacetylase 11 (Homo sapiens, UniProt Q96DB2); test: Inhibition of HDAC11
T2 sequence (Q96DB2 whole entry): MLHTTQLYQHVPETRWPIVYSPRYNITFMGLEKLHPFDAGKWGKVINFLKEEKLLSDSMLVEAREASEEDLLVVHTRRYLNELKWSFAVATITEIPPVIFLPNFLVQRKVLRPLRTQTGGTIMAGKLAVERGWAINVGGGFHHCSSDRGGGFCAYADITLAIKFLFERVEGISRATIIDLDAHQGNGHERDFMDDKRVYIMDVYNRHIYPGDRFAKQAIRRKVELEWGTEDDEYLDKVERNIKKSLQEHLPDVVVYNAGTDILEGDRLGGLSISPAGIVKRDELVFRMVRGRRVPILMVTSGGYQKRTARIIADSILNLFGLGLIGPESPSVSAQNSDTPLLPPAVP

[3] = Octanol-water distribution coefficient, log D of the compound; format: physicochemical
PC-3 = test: Antitumor activity against human PC3 cells xenografted in nude mouse assessed as inhibition of tumor growth at 200 mg/kg, ip administered for 21 days measured or day 22; format: functional; conditions: PC-3, ip, route intraperitoneal, read-out: TGI

Structure (SMILES): O=C(CCCCCNC(=O)NC(=O)c1ccccc1)NO
- Ki [1]: 7 nM
- IC50 (HCT-116): 1580 nM
- half-life [2]: 92.4 min
- Ki (Histone deacetylase 4): 20 nM
- Ki (Histone deacetylase 11): 39 nM
- logD [3]: 0.75
- inhibition in vivo at 200 mg/kg (PC-3): 73%
